# According to US5286721A, “1-azabicyclo[3.2.0]hept-2-ene-2-carboxylic acid compounds” (Fujisawa Pharmaceutical Co., Ltd., priority 1990, dated 1994):
# Test system: S. aureus 6
# Assay: In vitro antimicrobial activity (two-fold agar-plate dilution method)
# Format: cell-based
# Conditions: Staphylococcus aureus, heart infusion agar (HI-agar), 10^6 viable cells per ml, 37° C., 20 hours, read-out: MIC (minimal inhibitory concentration)
# Experimental: In vitro Antimicrobial Activity was determined by the two-fold agar-plate dilution method as described below.
# One loopful of an overnight culture of a test strain in Trypticase-soy broth (10^6 viable cells per ml) was streaked on heart infusion agar (HI-agar) containing graded concentrations of the test compound, and the minimal inhibitory concentration (MIC) was expressed in terms of μg/ml after incubation at 37° C. for 20 hours.
smiles,measurement,value
"C[C@@H](O)[C@H]1C(=O)N2C(C(=O)O)=C(C3CN=CNC3)C[C@H]12 (stereo partly drawn) [Example 1, [5R,6S)-6-[(R)-1-hydroxyethyl]-3-[3,4,5,6-tetrahydropyrimidin-5-yl]-7-oxo-1-azabicyclo[3.2.0]hept-2-ene-2-carboxylic acid]",MIC,≤ 0.025 µg/mL
